Key:
[1] = cited from earlier work
[2] = Stability of additive with paclitaxel under ethylene oxide sterilization, heating and aging; assay type: physicochemical; settings: additive formulated with paclitaxel; reacted with paclitaxel
albumin = albumin (Homo sapiens, UniProt P02768); settings: cited from earlier work
Chain of albumin (P02768 25-609): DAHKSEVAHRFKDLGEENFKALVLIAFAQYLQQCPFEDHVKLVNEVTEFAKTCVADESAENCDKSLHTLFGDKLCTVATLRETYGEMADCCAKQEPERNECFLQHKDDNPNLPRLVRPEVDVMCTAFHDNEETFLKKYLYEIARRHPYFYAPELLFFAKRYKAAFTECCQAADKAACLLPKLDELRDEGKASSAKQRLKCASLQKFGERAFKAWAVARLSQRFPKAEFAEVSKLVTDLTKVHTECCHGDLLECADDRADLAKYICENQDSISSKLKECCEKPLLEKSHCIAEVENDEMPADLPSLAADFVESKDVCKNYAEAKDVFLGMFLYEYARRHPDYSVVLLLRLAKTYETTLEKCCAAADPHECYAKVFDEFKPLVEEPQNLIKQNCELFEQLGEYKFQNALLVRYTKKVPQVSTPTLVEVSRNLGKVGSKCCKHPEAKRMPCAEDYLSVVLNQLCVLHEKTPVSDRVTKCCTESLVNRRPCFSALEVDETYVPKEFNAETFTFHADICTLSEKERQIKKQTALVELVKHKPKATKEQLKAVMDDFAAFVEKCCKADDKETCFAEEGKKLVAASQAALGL

Compound: COc1ccc(O)c(C(C)(C)C)c1 [Butylated hydroxyanisole (BHA), Butylated hydroxyanisole]
- log P [1]: 1.31

Compound: O=C1O[C@H]([C@@H](O)CO)C(O)=C1O [ascorbic acid]
- stability under ethylene oxide sterilization, heating, and aging process [2]: not stable

Compound: O=C(O)c1ccccc1 [benzoic acid]
- stability under ethylene oxide sterilization, heating, and aging process [2]: not stable

Compound: OCCNCCO [diethanolamine]
- stability under ethylene oxide sterilization, heating, and aging process [2]: not stable

Compound: O=C(O)c1cc(O)ccc1O [gentisic acid]
- stability under ethylene oxide sterilization, heating, and aging process [2]: not stable

Compound: CO[C@H]1C[C@@H]2CC[C@@H](C)[C@@](O)(O2)C(=O)C(=O)N2CCCC[C@H]2C(=O)O[C@H]([C@H](C)C[C@@H]2CC[C@@H](O)[C@H](OC)C2)CC(=O)[C@H](C)/C=C(\C)[C@@H](O)[C@@H](OC)C(=O)[C@H](C)C[C@H](C)/C=C/C=C/C=C/1C [rapamycin]
- protein bound (albumin): 92%

Compound: PEG-20 sorbitan monolaurate [Tween 20]
- log P [1]: about 3.0
